Data set [1] relates to TT cells (MTC, RET C634W). The experiment in a line: Inhibition of proliferation of TT cells (CellTiter-Glo, 72 h). As to conditions: Homo sapiens. It counts as cell-based. On the procedure: TT cells were purchased from the cell bank of the Chinese Academy of Sciences.
When TT cells were cultured to the appropriate fusion level, TT cells were collected, and the cells were adjusted to the appropriate cell concentration using complete medium, and the cell suspension was spread in a 96-well plate, 90 μL per well, and placed to the wall of a 37° C., 5% CO2 incubator overnight; and compound solutions of different concentrations were prepared using DMSO and culture medium; and a solvent control was set, the compound solution was added to a 96-well plate, 10 μL per well, and placed to the wall of a 37° C., 5% CO2 incubator for 72 hours; CellTiter-Glo solution was added thereto and the mixture was mixed well by shaking, incubated for 10 minutes in the dark, and read by BioTek Synergy H1 microplate reader.
The IC50 values were obtained by using luminescence signal values to calculate the inhibition rate, the concentration and the inhibition rate were fitted to a nonlinear regression curve using Graphpad Prism software.
For orientation: In ATP-based viability assays light output follows the ATP content of the culture.

In data set [2] the target is T1, Ba/F3 KIF5B-RET cells (Homo sapiens, UniProt P07949).
T1 construct: fused on or other part: P33176 (Kinesin-1 heavy chain)
T1 sequence (P07949 whole entry, change not shown, the tested form may be a part): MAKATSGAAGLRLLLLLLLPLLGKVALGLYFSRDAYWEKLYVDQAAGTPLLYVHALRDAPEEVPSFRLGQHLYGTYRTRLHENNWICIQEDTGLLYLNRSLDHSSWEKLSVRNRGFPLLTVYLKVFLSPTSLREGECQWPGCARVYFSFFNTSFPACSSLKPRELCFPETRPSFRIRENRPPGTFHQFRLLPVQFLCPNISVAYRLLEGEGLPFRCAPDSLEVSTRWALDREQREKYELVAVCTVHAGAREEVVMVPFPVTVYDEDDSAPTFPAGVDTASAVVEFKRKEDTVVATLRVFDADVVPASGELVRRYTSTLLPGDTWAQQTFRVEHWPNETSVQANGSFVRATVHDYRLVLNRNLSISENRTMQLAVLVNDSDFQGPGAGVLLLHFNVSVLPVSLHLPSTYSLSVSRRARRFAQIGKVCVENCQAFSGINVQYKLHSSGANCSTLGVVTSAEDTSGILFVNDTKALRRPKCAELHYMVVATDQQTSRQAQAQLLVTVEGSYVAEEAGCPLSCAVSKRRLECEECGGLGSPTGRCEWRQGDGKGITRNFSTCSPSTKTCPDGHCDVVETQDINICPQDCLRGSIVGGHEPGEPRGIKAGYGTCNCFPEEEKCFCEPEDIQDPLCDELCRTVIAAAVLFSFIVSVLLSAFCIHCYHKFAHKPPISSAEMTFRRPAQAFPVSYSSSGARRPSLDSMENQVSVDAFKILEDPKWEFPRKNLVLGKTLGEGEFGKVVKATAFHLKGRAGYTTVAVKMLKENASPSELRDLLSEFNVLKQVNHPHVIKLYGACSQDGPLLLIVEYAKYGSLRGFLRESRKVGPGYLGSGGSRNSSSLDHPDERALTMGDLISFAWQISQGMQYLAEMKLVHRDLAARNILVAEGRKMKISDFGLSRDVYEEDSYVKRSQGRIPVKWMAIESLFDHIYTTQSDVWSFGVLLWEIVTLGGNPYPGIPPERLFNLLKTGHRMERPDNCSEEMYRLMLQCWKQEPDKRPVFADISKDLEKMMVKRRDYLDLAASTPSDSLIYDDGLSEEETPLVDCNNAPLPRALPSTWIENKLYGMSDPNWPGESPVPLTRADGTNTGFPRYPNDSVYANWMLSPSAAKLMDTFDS
As to the kind of experiment: Inhibition of proliferation of Ba/F3 KIF5B-RET cells (CellTiter-Glo). As to conditions: 72 to 144 hours. It counts as cell-based. On the procedure: When Ba/F3 KIF5B-RET cells were cultured to the appropriate cell density, cells were collected, and the cells were adjusted to the appropriate cell concentration using complete medium, and the cell suspension was spread in a 96-well plate, 90 μL per well, and placed in the wall of a 37° C., 5% CO2 incubator overnight; compound solutions of different concentrations were prepared using DMSO and culture medium; a solvent control was set, and the compound solution was added to a 96-well plate with […] at 37° C. in a 5% CO2 incubator for 72 to 144 hours, CellTiter-Glo solution was added thereto and mixed well by shaking, incubated for 10 minutes in the dark, and read by BioTek Synergy H1 microplate reader.
The IC50 values were obtained by using the luminescence signal values to calculate the inhibition rate, the concentrations and the inhibition rates were fitted to a nonlinear regression curve using Graphpad Prism software.

For data set [3], the target named is T2, RET kinase (Homo sapiens, UniProt P07949).
T2 construct: purchased Carna 08-159
T2 sequence (P07949 29-1114): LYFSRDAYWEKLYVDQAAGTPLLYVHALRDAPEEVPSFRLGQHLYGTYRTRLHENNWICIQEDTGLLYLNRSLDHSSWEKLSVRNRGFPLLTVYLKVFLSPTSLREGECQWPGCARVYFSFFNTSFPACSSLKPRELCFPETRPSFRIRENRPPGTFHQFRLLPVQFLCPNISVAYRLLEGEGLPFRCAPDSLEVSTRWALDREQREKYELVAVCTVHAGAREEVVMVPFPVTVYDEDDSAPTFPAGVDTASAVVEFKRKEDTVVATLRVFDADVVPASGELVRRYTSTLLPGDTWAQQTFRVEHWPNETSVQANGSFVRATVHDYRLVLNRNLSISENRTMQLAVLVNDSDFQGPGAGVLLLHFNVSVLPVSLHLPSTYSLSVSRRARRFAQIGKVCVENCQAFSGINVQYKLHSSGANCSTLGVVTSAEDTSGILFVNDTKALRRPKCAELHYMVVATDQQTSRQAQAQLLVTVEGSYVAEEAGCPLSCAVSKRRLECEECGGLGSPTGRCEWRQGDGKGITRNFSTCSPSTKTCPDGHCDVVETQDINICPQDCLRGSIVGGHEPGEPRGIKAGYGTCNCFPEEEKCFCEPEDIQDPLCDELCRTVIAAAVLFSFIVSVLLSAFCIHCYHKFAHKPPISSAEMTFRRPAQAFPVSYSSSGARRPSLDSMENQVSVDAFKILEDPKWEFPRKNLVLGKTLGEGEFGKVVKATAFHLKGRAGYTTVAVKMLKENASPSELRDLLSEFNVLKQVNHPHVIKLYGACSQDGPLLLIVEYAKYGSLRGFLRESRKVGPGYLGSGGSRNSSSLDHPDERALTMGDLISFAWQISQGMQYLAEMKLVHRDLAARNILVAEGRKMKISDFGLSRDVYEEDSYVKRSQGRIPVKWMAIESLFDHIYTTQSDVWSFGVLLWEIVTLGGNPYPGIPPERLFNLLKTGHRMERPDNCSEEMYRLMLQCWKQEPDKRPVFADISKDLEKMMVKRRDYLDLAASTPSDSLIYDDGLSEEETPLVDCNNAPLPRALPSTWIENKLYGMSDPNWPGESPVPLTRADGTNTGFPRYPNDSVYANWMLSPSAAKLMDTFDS
As to the kind of experiment: HTRF kinase activity inhibition, RET wild-type. As to conditions: ATP at Km. It counts as biochemical. From the text: 2.2 Experimental Reagents: • RET enzyme was purchased from Carna Company, and the article number was 08-159; • RET M918T enzyme was purchased from Carna Company, and the article number was 08-508; • KIF5B-RET was purchased from SignalChem Company, the article number was R02-19FG-05; • CCDC6-RET was purchased from SignalChem Company, the article number was R02-19BG-05; • RET V804M enzyme was purchased from Thermofisher Company, and the article number was PV6223; • RET V804L enzyme was purchased from Thermofisher Company, and the article number was PV4397; • HTRF KinEASE-TK kit was purchased from Cisbio Company, and the article number was 62TK0PEC; • ATP was purchased from Thermofisher Company, and the article number was PV3227; • 384-well plate was purchased from PerkinElmer Company, and the article number was 6007290.
In this experiment, a homogeneous time-resolved fluorescence (HTRF) method was used for the detection of compounds on RET kinase activity.

Data set [4] deals with T3, KDR kinase (Homo sapiens, UniProt P35968).
T3 construct: purchased Carna 08-191
T3 sequence (P35968 20-1356): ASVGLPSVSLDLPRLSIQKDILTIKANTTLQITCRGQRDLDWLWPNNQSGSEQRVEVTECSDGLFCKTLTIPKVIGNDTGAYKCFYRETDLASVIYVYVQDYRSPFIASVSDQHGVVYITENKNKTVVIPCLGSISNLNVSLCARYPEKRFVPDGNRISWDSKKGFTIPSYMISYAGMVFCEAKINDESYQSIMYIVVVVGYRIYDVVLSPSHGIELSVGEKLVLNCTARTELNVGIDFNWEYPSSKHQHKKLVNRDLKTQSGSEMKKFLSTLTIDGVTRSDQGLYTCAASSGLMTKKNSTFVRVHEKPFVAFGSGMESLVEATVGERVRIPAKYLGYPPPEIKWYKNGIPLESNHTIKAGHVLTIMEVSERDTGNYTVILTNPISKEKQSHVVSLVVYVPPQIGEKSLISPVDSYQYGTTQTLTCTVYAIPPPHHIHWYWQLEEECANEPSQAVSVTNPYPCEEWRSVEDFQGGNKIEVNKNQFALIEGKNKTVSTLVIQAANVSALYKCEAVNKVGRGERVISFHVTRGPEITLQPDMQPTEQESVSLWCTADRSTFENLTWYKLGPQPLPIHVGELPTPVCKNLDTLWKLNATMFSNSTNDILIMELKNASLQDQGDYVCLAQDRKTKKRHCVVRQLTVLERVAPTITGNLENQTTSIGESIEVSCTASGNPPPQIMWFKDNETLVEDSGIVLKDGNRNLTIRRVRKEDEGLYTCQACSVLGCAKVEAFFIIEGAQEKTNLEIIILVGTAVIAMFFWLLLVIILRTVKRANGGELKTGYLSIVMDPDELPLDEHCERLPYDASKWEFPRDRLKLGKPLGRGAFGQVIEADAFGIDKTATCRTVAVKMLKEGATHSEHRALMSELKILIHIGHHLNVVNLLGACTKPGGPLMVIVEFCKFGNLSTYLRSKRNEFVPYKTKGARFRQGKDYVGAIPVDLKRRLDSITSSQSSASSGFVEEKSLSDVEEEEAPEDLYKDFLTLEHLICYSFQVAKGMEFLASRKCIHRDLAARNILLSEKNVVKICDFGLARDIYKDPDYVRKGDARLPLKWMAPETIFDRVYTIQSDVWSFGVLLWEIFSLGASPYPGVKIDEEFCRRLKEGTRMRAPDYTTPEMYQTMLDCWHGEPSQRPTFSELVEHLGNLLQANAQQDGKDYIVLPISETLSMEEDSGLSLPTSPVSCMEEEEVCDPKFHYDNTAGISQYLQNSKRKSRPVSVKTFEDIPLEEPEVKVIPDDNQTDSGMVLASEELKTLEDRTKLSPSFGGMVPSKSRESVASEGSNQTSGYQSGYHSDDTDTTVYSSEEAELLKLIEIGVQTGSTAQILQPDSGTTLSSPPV
As to the kind of experiment: HTRF kinase activity inhibition, KDR. It counts as biochemical. As to conditions: for IC50: HTRF, ATP at Km; for Ratio (KDR/RET): KDR IC50 / RET IC50. An excerpt:
2.2 Experimental Reagents: • KDR kinase was purchased from Carna Company, and the article number was 08-191; • HTRF KinEASE-TK kit was purchased from Cisbio Company, and the article number was 62TK0PEC; • ATP was purchased from Thermofisher Company, and the article number was PV3227; • 384-well plate was purchased from PerkinElmer Company, and the article number was 6007290.
In this experiment, the homogeneous time-resolved fluorescence (HTRF) method was used for the detection of compounds on KDR kinase activity.
In general terms: In TR-FRET formats the signal depends on donor and acceptor labels being close together.

The nature of data set [5]: Balb/C mouse pharmacokinetics, oral 5 mg/kg. It is filed as in vivo, Balb/C mice. To be noted: male, p.o. 5 mg/kg, plasma; for MRT: read-out: Average residence time MRT; for Cmax: read-out: Blood concentration Cmax; for AUC(0-t): read-out: Curve area AUC0-t; for AUC(0-inf): read-out: Curve area AUC0-∞; for half-life: read-out: Half-life t1/2 (converted); for Tmax: read-out: Peak time tmax. On the procedure: The pharmacokinetic behavior of the following compound embodiments, administered orally at a dose of 5 mg/kg in plasma in mice, was studied using Balb/C mice as test animals.
Balb/C Mouse 6/embodiment, male, Shanghai Jiesijie Laboratory Animal Co., Ltd, Animal Production License No. (SCXK (Shanghai) 2013-0006 N0.311620400001794).
Balb/C mice, males; p.o. after overnight fasting, respectively, at a dose of 5 mg/kg, administered in a volume of 10 mL/kg.
0.5% CMC-Na (1% Tween80) was dissolved by ultrasound, and prepared into clear solution or uniform suspension.
Before and after administration, 0.1 mL of blood was collected from mice at 0, 0.5, 1, 2, 4, 6, 8 and 24 hours by orbital collection, placed in EDTA-K2 tubes, centrifuged at 6000 rpm at 4° C. for 6 minutes to separate plasma, and stored at −80° C.
2.5 Sample Handling: • 1) 40 μL of plasma sample was precipitated by adding 160 μL of acetonitrile, mixed and centrifuged at 3500×g for 5-20 minutes. • 2) 100 μL of the supernatant solution after treatment was taken to analyze the concentration of the test compound by LC/MS/MS.
2.6 Liquid Phase Analysis • Liquid phase conditions: Shimadzu LC-20AD pump • Mass spectrometry conditions: AB Sciex API 4000 mass spectrometer • Chromatographic column: phenomenex Gemiu 5 μM C18 50×4.6 mm • Mobile phase: Liquid A was 0.1% formic acid aqueous solution, liquid B was acetonitrile • Flow rate: 0.8 mL/min • Elution time: 0-4.0 minutes, the eluent was as follows:
The main pharmacokinetic parameters were calculated by WinNonlin 6.1 and the results of the mouse pharmacokinetic experiments were shown in Table 13 below.

Take `[2H]C([2H])([2H])Oc1ccc(CN2C3CC2CN(c2ccc(-c4cc(C#CC(C)(C)O)cn5ncc(C#N)c45)cn2)C3)cn1` [Embodiment 25, 6-(3-Hydroxy-3-methylbut-1-yn-1-yl)-4-(6-(6-((6-(methoxy-d3)pyridin-3-yl)methyl)-3,6-diazabicyclo[3.1.1]heptan-3-yl)pyridin-3-yl)pyrazolo[1,5-a]pyridine-3-carbonitrile]: the IC50 in data set [1] came out at 0.015 µM; in data set [2] it was 0.0135 µM.
On the same counts, the results for `COc1ccc(CN2C3CC2CN(c2ccc(-c4cc(OCC56CC(CO)(C5)C6)cn5ncc(C#N)c45)cn2)C3)cn1` [Embodiment 45, 6-((3-(Hydroxymethyl)bicyclo[1.1.1]pentan-1-yl)methoxy)-4-(6-(6-((6-methoxypyridin-3-yl)methyl)-3,6-diazabicyclo[3.1.1]heptan-3-yl)pyridin-3-yl)pyrazolo[1,5-a]pyridine-3-carbonitrile] are 0.00917 µM and 0.00706 µM.
In data set [3], `COc1ccc(CN2C3CC2CN(c2ccc(-c4cc(OCC5(C#N)CCOCC5)cn5ncc(C#N)c45)cn2)C3)cn1` [Embodiment 59, 6-((4-Cyanotetrahydro-2H-pyran-4-yl)methoxy)-4-(6-(6-((6-methoxypyridin-3-yl)methyl)-3,6-diazabicyclo[3.1.1]heptan-3-yl)pyridin-3-yl)pyrazolo[1,5-a]pyridine-3-carbonitrile] showed an IC50 of 0.00058 µM. Moreover, in data set [4], the IC50 was found to be 0.184 µM and the “Ratio (KDR/RET)” value is on record as 317. The IC50 in data set [2] is 0.034 µM. Also, in data set [5], the MRT is 4.27 h, the Cmax is 1.33 µg/mL, the AUC(0-t) came to 7.34 µg·h/mL and the AUC(0-inf) came to 7.37 µg·h/mL. For the same molecule, in data set [5], the half-life is 2.34 h and the time of peak concentration (Tmax) is 0.5 h.
Turning to `COc1ncc(CN2C3CC2CN(c2ccc(-c4cc(C#C[C@@H](C)O)cn5ncc(C#N)c45)cn2)C3)cc1F` [Embodiment 68, 4-(6-(6-((5-Fluoro-6-methoxypyridin-3-yl)methyl)-3,6-diazabicyclo[3.1.1]heptan-3-yl)pyridin-3-yl)-6-((R)-3-hydroxybut-1-yn-1-yl)pyrazolo[1,5-a]pyridine-3-carbonitrile], the IC50 in data set [3] amounted to 0.00044 µM. Also, in data set [4], the IC50 worked out at 0.0189 µM and the “Ratio (KDR/RET)” value is on record as 43. The IC50 in data set [2] worked out at 0.0263 µM. Further, in data set [5], the MRT came out at 3.47 h, the Cmax was found to be 1.7 µg/mL, the AUC(0-t) is 7.21 µg·h/mL and the AUC(0-inf) came to 7.22 µg·h/mL. Also, in data set [5], the half-life was 1.73 h and the Tmax was 0.5 h.
For `COc1ncc(CN2C3CC2CN(c2ccc(-c4cc(OCC56CC(CO)(C5)C6)cn5ncc(C#N)c45)cn2)C3)cc1F` [Embodiment 71, 4-(6-(6-((5-Fluoro-6-methoxypyridin-3-yl)methyl)-3,6-diazabicyclo[3.1.1]heptan-3-yl)pyridin-3-yl)-6-((3-(hydroxymethyl)bicyclo[1.1.1]pentan-1-yl)methoxy)pyrazolo[1,5-a]pyridine-3-carbonitrile], the IC50 came out at 0.00865 µM in data set [1] and 0.00559 µM in data set [2].
For `COc1ncc(CN2C3CC2CN(c2ccc(-c4cc(N5CC(C)(O)C5)cn5ncc(C#N)c45)cn2)C3)cc1F` [Embodiment 73, 4-(6-(6-((5-Fluoro-6-methoxypyridin-3-yl)methyl)-3,6-diazabicyclo[3.1.1]heptan-3-yl)pyridin-3-yl)-6-(3-hydroxy-3-methylazetidin-1-yl)pyrazolo[1,5-a]pyridine-3-carbonitrile], in that order: 0.00595 µM and 0.012 µM.
For `COCC(C)(O)C#Cc1cc(-c2ccc(N3CC4CC(C3)N4Cc3ccc(OC)nc3)nc2)c2c(C#N)cnn2c1` (centres unmarked) [Embodiment 75, 6-(3-Hydroxy-4-methoxy-3-methylbut-1-yn-1-yl)-4-(6-(6-((6-methoxypyridin-3-yl)methyl)-3,6-diazabicyclo[3.1.1]heptan-3-yl)pyridin-3-yl)pyrazolo[1,5-a]pyridine-3-carbonitrile], in that order: 0.0244 µM and 0.0347 µM.
For `COc1ncc(CN2C3CC2CN(c2ccc(-c4cc(N5CC(C)(C#N)C5)cn5ncc(C#N)c45)cn2)C3)cc1F` [Embodiment 76, 6-(3-Cyano-3-methylazetidin-1-yl)-4-(6-(6-((5-fluoro-6-methoxypyridin-3-yl)methyl)-3,6-diazabicyclo[3.1.1]heptan-3-yl)pyridin-3-yl)pyrazolo[1,5-a]pyridine-3-carbonitrile], in that order: 0.00348 µM and 0.00604 µM.
For `COc1ccc(CN2C3CC2CN(c2ccc(-c4cc(C#CC5(O)CCOCC5)cn5ncc(C#N)c45)cn2)C3)cn1` [Embodiment 78, 6-((4-Hydroxytetrahydro-2H-pyran-4-yl)ethynyl)-4-(6-(6-((6-methoxypyridin-3-yl)methyl)-3,6-diazabicyclo[3.1.1]heptan-3-yl)pyridin-3-yl)pyrazolo[1,5-a]pyridine-3-carbonitrile], the results for the IC50 in data set [1] and in data set [2] were 0.0139 µM and 0.0156 µM, respectively.
On the same counts, the results for `COc1ncc(CN2C3CC2CN(c2ccc(-c4cc(C#CC5(O)CCOCC5)cn5ncc(C#N)c45)cn2)C3)cc1F` [Embodiment 79, 4-(6-(6-((5-Fluoro-6-methoxypyridin-3-yl)methyl)-3,6-diazabicyclo[3.1.1]heptan-3-yl)pyridin-3-yl)-6-((4-hydroxytetrahydro-2H-pyran-4-yl)ethynyl)pyrazolo[1,5-a]pyridine-3-carbonitrile] are 0.0105 µM and 0.0137 µM.
For `COc1ccc(CN2C3CC2CN(c2ccc(-c4cc(C#CC5(O)COC5)cn5ncc(C#N)c45)cn2)C3)cn1` [Embodiment 80, 6-((3-Hydroxyoxetan-3-yl)ethynyl)-4-(6-(6-((6-methoxypyridin-3-yl)methyl)-3,6-diazabicyclo[3.1.1]heptan-3-yl)pyridin-3-yl)pyrazolo[1,5-a]pyridine-3-carbonitrile], in that order: 0.0173 µM and 0.0239 µM.

The IC50 is the concentration at which inhibition is half-maximal. One may read the MRT as a mean duration of stay, worked out from the concentration-time curve. The Tmax is the time at which the peak concentration occurs.
